# Reference: EP0701444B1, “METHODS AND COMPOSITIONS FOR INDUCING SLEEP” (Purdue Pharma Ltd., priority 1993, dated 1994)
# “Also recorded” adds a separate entry of the source. Read-outs that look alike come from different tables or passages of the source.
# Experiments:
# [1] = target: steroid site on the GABAA receptor-chloride channel complex; assay: [35S]TBPS binding assay; design: species or system Male Sprague-Dawley rats; conditions: inhibition of [35S]TBPS (2 nM) binding, rat cerebral cortex P2 membranes, 5 µM GABA, 90 minute incubation at 22°C
# Protocol: TBPS binding assays were conducted according to the following procedures, which are described in Gee, K.W.; Lawrence, L.J.; and Yamamura, H. I., "Modulation of the Chloride Ionophore by Benzodiazepine Receptor Ligands Influence of Gamma-Aminobutyric Acid and Ligand Efficacy," Molecular Pharmacology, 30:218, 1986. Male Sprague-Dawley rats (200-250g) were anesthetized with carbon dioxide and decapitated. The rats' brains were removed and the cerebral cortices were dissected and homogenized in 10 volumes of 0.32 M sucrose. Tissue was centrifuged at 1000 x g for 10 minutes and the resultant supernatant was centrifuged at 9,000 g for 20 minutes. The resultant pellet was resuspended in 10 volumes of 200 mM NaCl/50 mM Na-K phosphate pH 7.4 buffer (binding buffer) and then centrifuged at 9,000 x g for 10 minutes. This washing procedure was repeated twice and the final P2 pellet was resuspended in the binding buffer. For the binding assay, [^35S] TBPS (2 nM) was co-incubated in binding buffer with P2 membranes and 5 µM GABA and either 1) no additions to measure total binding; 2) 2 µM unlabeled TPBS to measure nonspecific binding; 3) the neurosteroid ranging in concentration from 1 Nm to 10µM. Following a 90 minute incubation at 22°C, the suspension was filtered and the bound radioactivity was determined by liquid scintillation counting. […] A lower IC50 indicates higher affinity for the steroid site on the GABAA receptor-chloride channel complex. Table 1 gives the IC50 values of representative steroids used in the present invention.
# [2] = system: rats; assay: Rat sleep-wake bioassay (EEG, EMG, locomotor activity, body temperature); assay type: in vivo, Wistar rats; conditions: for reduction in locomotor activity (LMA) over time: compared to Triazolam and Zolpidem; for LMA versus vehicle control: administered at CT-5, first hour after treatment
# Protocol: Rat preparation, monitoring, and analysis of the data was conducted as described below. […] Body temperature and locomotor activity were monitored via a miniature transmitter (Minimitter) surgically placed in the abdomen. The cranial implant consisted of stainless steel screws (2 frontal [+3.9 AP form bregma, ±2.0 ML] and two occipital [-6.4 AP, ±5.5 ML]) for EEG recording. Two Teflon-coated steel wires were positioned under the nuchal trapezoid muscles for EMG recording. All leads were soldered to a miniature connector prior to surgery, and chemically sterilized in Glutarex (3M Co.). The implant assembly was affixed to the skull with dental acrylic. A minimum of three weeks was allowed for recovery.
# Each rat was permanently housed in its own individual recording cage located within separate, ventilated compartments of custom-designed stainless steel cabinets. Each Nalgene microisolator cage, which is an individual recording cage, was enhanced with a filter-top riser and swivel-commutator. Food and water were available ad libitum. […] Animals were undisturbed for three days both before and after treatments. In practice, animals were undisturbed during the weekend. Treatments were administered on Monday evening or Tuesday morning, and the animals were again left undisturbed until Friday, when cages were cleaned and the data copied off the computers.
# The computers monitored the EEG, EMG, body temperature and non-specific locomotor activity (LMA) via telemetry, and drinking activity from 48 rats simultaneously. The computer classified the arousal state every 10 seconds using pattern-matching algorithms which included behavior-dependent contextual rules. Drinking and LMA were recorded every 10 seconds, while body temperature was recorded every minute.
# Therefore, time of treatment is important. By administering the drug at CT-18, which is the peak of the rat's activity dominated period, the natural tendency for the rats to sleep at lights on ([…] clock time or Circadian Time, CT-0) cannot mask the hypnotic activity of the drug. By administering the drug at CT-5 when the propensity for REM sleep is greatest, the drug's effect on REM sleep can be measured more accurately. The activity dominated period begins when the lights are turned off at CT-12 or 15:00 clock time on the Figures.
# The drugs and controls were injected intraperitoneally or administered orally in a volume of 1 ml/kg or […], respectively, under dim red illumination for the CT-18 studies or under regular light for the CT-5 studies.
# A matched control group, N=20, was selected from a pool of 60 available control candidates. These matched control groups were constructed as follows.
# [3] = Solubility in water; assay type: physicochemical; conditions: read-out: soluble in water
# [4] = administered at CT-18, first few hours after administration
structure (smiles),measurement,setting,value
CC(=O)[C@H]1CC[C@H]2[C@@H]3CC[C@@H]4C[C@H](O)CC[C@]4(C)[C@H]3CC[C@]12C [3α-hydroxy-5β-pregnan-20-one],IC50,[1],25 nM
same,body temperature,[2],tends not to affect body temperature
same,duration of uninterrupted NREM sleep (sleep bout length),[2],strong increase
same,rebound insomnia / rebound wakefulness / rebound effects,[2],not producing rebound wakefulness
same,reduction in locomotor activity (LMA) over time,[2]; 10 mg/kg,no reduction
same,reduction in locomotor activity (LMA) over time,[2]; 30 mg/kg,moderately smaller reduction
same,rebound reduction of NREM sleep,"[2]; CT-5 or CT-18, any dose",no rebound reduction of NREM sleep
same,NREM sleep,"[2]; administered at CT-5 or CT-18, listed as Pregnanolone",potent at both CT-5 and CT-18; also recorded: potent NREM-promoting effect
same,NREM sleep,"[2]; administered at CT-5 or CT-18, listed as pregnanolone",effective in promoting NREM sleep
same,REM sleep,[2]; listed as Pregnanolone,slight REM-interference
same,REM sleep,[2]; listed as pregnanolone,lack an inhibitory effect on REM sleep
CC(=O)[C@H]1CC[C@H]2[C@@H]3CC[C@H]4C[C@@](O)(CN=[N+]=[N-])CC[C@]4(C)[C@H]3CC[C@]12C [3β-azidomethyl-3α-hydroxy-5α-pregnan-20-one],IC50,[1],34 nM
CC(=O)[C@H]1CC[C@H]2[C@@H]3CC[C@H]4C[C@@](O)(CC#N)CC[C@]4(C)[C@H]3CC[C@]12C [3β-cyanomethyl-3α-hydroxy-5α-pregnan-20-one],IC50,[1],439 nM
"C#C[C@@]1(O)CC[C@@]2(C)[C@@H](CC[C@@H]3[C@@H]2CC[C@]2(C)[C@@H](C(C)=O)CC[C@@H]32)C1 [3β-ethynyl-3α-hydroxy-5α-pregnan-20-one, 3β-Ethynyl-3α-hydroxy-5α-pregnan-20-one]",REM sleep,[2],slight REM-interference
same,NREM sleep,[2]; administered at CT-5 or CT-18,potent NREM-promoting effect
C#C[C@@]1(O)CC[C@@]2(C)[C@H](CC[C@@H]3[C@@H]2CC[C@]2(C)[C@@H](C(C)=O)CC[C@@H]32)C1 [3β-ethynyl-3α-hydroxy-5β-pregnan-20-one],IC50,[1],39 nM
same,REM sleep,[2],lack an inhibitory effect on REM sleep
same,body temperature,[2],minimal effect on body temperature
same,duration of uninterrupted NREM sleep (sleep bout length),[2],strong increase
same,reduction in LMA over time,[2]; 18 mg/kg at CT-18,moderately smaller reduction
same,rebound reduction of NREM sleep,[2]; administered at CT-18,no rebound reduction of NREM sleep
"Cc1cccc([C@H](C)c2cnc[nH]2)c1C [Dexmedetomidine, reference compound]",REM sleep,[2],strongly interfered with REM sleep
same,rebound insomnia / rebound wakefulness / rebound effects,[2],strong rebound effects
"C#C[C@@]1(O)CC[C@@]2(C)[C@H](CC[C@@H]3[C@@H]2CC[C@]2(C)[C@@H](C(=O)COC(=O)CCC(=O)O)CC[C@@H]32)C1 [Sodium 3α,21-dihydroxy-3β-ethynyl-5β-pregnan-20-one 21-hemisuccinate]",solubility,[3],> 20 mg/mL
"Cc1nnc2n1-c1ccc(Cl)cc1C(c1ccccc1Cl)=NC2 [Triazolam, reference compound]",LMA after the hypnotic action has worn off,[2],reduced body temperature and locomotor activity
same,body temperature,[2],affect body temperature; also recorded: reduced body temperature
same,NREM sleep / hypnotic effect,[2]; administered at CT-5,no hypnotic effect
same,LMA versus vehicle control,[2],reduced LMA below vehicle control levels
same,REM sleep,[2]; [4],reduced REM sleep
"Cc1ccc(-c2nc3ccc(C)cn3c2CC(=O)N(C)C)cc1 [Zolpidem, reference compound]",LMA after the hypnotic action has worn off,[2],continues to depress LMA; also recorded: reduced body temperature and locomotor activity
same,REM sleep,[2],strongly interfered with REM sleep
same,body temperature,[2],affect body temperature; also recorded: reduced body temperature
same,rebound insomnia / rebound wakefulness / rebound effects,[2],did not produce rebound insomnia
same,NREM sleep / hypnotic effect,[2]; administered at CT-5,unable to effectively induce NREM sleep
same,REM sleep,[2]; administered at CT-5,interferes with REM sleep
same,LMA versus vehicle control,[2],reduced LMA below vehicle control levels
same,REM sleep,[2]; [4],reduced REM sleep
